Data from patent US9820986B2, “Glycopeptide compositions” (TAIWAN HOPAZ CHEMS, MFG. CO., LTD., priority 2005, dated 2017).

Tests used:
[1] = test system: tumor; test: Tumor response to paclitaxel treatment, imaged with 99mTc-glycopeptide; format: in vivo, rats; settings: paclitaxel 40 mg/kg iv
Experimental: To assess anti-angiogenic treatment response, rats were treated with paclitaxel (40 mg/kg,iv), followed by imaging with ^99mTc-glycopeptide on day 4. Tumor uptake and in situ hybridization (ISH) and TUNEL assays were conducted pre- and post-paclitaxel treatment.

[2] = test system: bone; test: Bone scintographic imaging studies; format: in vivo, normal female Fischer 344 rats; settings: 99mTc-labeled, 300 μCi, i.v.
[3] = Renal clearance of pamidronate; settings: in vivo

Question: Which results are given for `CC(=O)O[C@H]1C(=O)[C@@]2(C)[C@H]([C@H](OC(=O)c3ccccc3)[C@]3(O)C[C@H](OC(=O)[C@H](O)[C@@H](NC(=O)c4ccccc4)c4ccccc4)C(C)=C1C3(C)C)[C@]1(OC(C)=O)CO[C@@H]1C[C@@H]2O` [paclitaxel]?
Answer: tumor progression ([1]; day 4, compared to 99mTc-glycopeptide baseline): no marked tumor progression; tumor necrosis ([1]; post-treatment): clearly seen

Question: Which bone targeting [2] does the source give for `NCCC(O)(P(=O)(O)O)P(=O)(O)O` [Pamidronate] here?
Answer: targets bone poorly

Question: And the renal clearance [3]?
Answer: quick renal clearance
